Experimental findings from paper PMC3471066, “The Inhibitory Effect of Prunella vulgaris L. on Aldose Reductase and Protein Glycation” (Journal of Biomedicine and Biotechnology, 2012) are described below.

Each structure is given as a SMILES string. Where two headings read alike, the source gives them in different places.

A short description of assay [1]: Effects on AGEs formation (BSA-methylglyoxal, fluorescence). The assay is classed as biochemical. As for the experimental part:
The modified procedure of Lee et al. was followed. Bovine serum albumin (10 mg/mL) was incubated with 5 mM methylglyoxal in sodium phosphate buffer (100 mM; pH 7.4). […] All of the reagent and samples were sterilized by filtration through 0.2 μM membrane filters, and the mixture was incubated at 37°C for 7 days. The fluorescence intensity was measured at an excitation wavelength of 330 nm and an emission wavelength of 410 nm with a LS50B fluorescence spectrometer (Perkin-Elmer Ltd., USA). Aminoguanidine was also tested as a known inhibitor.

The nature of a further assay: ABTS•+ assay. As for the experimental part:
The method of Re et al. was used with slight modification. The ABTS diammonium salt (2 mM) and potassium persulfate (3.5 mM) were mixed and diluted in distilled water kept in the dark at room temperature for 24 h before use. After addition of ABTS^•+ solution to 10 μL of antioxidant compounds were recorded at after 10 min reaction. The percentage inhibition of absorbance at 750 nm is calculated and potted as a function of concentration of antioxidants. Trolox was used as positive control.

In a further assay the test system is rat erythrocyte. Briefly: Blood culture (erythrocyte) and intracellular galactitol measurement. The assay is classed as cell-based. Conditions: for Rat erythrocyte galactitol content: 30 mM galactose, 5 μg/mL compound, 3 h; for inhibition at 5 µg/mL: Rattus norvegicus, Erythrocyte, 5 μg/mL, read-out: inhibition of galactitol accumulation in rat erythrocyte. As for the experimental part: Blood sample was collected in heparin-containing polypropylene tube from 10-week-old male rats. For sugar and sugar alcohol analysis, erythrocytes from heparinized blood were separated from the plasma and buffy coat by centrifuging at 2000×g for 10 min. The cells were washed thrice with normal saline (0.9% NaCl) at 4°C. In the final washing, the cells were centrifuged at 2000 ×g for 10 min to obtain a consistently packed cell preparation. The packed cells (1 mL) were then incubated in a Krebs-Ringer bicarbonate buffer (pH 7.4) containing 30 mM galactose in the presence or absence of samples at 37°C in 5% CO2 for 3 h. The erythrocytes were washed with cold saline by centrifuging at 2000 ×g for 10 min, precipitated by adding 6% of cold perchloric acid (3 mL), and centrifuged again at 2000 ×g for 10 min. The supernatant was neutralized with 2.5 M K2CO3 at 4°C and used for galactitol determination. HPLC analysis for sugar and sugar alcohol in blood was performed with this supernatant of red blood cell homogenate after being benzoylated.

Assay [2] concerns the target T1, rat lens aldose reductase (rAR) (Rattus norvegicus, UniProt P07943).
T1 construct: from tissue; host or cells: lens of Sprague-Dawley rats (homogenate supernatant)
Briefly: Rat lens aldose reductase (rAR) inhibition, NADPH decrease at 340 nm. The assay is classed as biochemical.

The next assay relates to rat lenses. Briefly: Lens culture and intracellular galactitol measurement. The assay is classed as cell-based. Conditions: for Galactitol content in rat lens: 30 mM galactose, 5 μg/mL compound, 6 d; for inhibition at 5 µg/mL: Rattus norvegicus, 5 μg/mL, read-out: inhibition of galactitol accumulation in rat lenses. The method, then:
Lenses isolated from 10-week-old male rats were cultured for 6 d in TC-199 medium that contained 15% fetal bovine serum 100 units/mL penicillin and 0.1 mg/mL streptomycin under sterile conditions in an atmosphere of 5% CO2 and 95% air at 37°C. Samples were dissolved in dimethyl sulfoxide. The lenses were divided into 5 groups and cultured in medium containing 5 mM glucose, 30 mM galactose, and rosmarinic acid or caffeic acid ethylene ester. Each lens was placed in well containing 1.0 mL of medium. Galactitol was determined by HPLC after its derivatization by reaction with benzoic acid to a fluorescent compound [20].

Assay [3] deals with T2, human recombinant aldose reductase (rhAR) (Homo sapiens, UniProt P15121).
T2 construct: purchased Wako Pure Chemical Industries (Osaka, Japan)
Nature of the assay: Human recombinant aldose reductase (rhAR) inhibition. The assay is classed as biochemical.

Assay [4] concerns the target T2, human recombinant aldose reductase (rhAR). Nature of the assay: Kinetics of rhAR inhibition, Lineweaver-Burk plots. The assay is classed as biochemical. Conditions: DL-glyceraldehyde 0.1-1 mM. The method, then: Reaction mixtures consisted of 0.1 M potassium phosphate, 0.16 mM NADPH, 2 mM of recombinant human aldose reductase (rhAR) with varied concentrations of substrate DL-glyceraldehyde and AR inhibitor in a total volume of 200 μL. Concentrations were ranged from 0.1 to 1 mM for DL-glyceraldehyde, and from 0.1 to 1 mM for active compound. Recombinant human aldose reductase activity was assayed spectrophotometrically by measuring the decrease in absorption of NADPH at 340 nm after substrate addition using Bio Tek Power Wave XS spectrophotometer (Bio Tek Instruments, VT, USA).

For `O=Cc1ccc(O)c(O)c1` [Compound 6, protocatechualdehyde], the values for the IC50 (in assay [1]; in the assay “ABTS•+ assay”) were 304 ± 3.41 µM and 12.4 ± 0.33 µM, respectively. The “Inhibition (%) of AGEs” value stood at 9.85 ± 0.16% in assay [1] (19.61 μg/mL), 63.45 ± 1.16% in assay [1] (49.02 μg/mL) and 88.69 ± 0.56% in assay [1] (98.04 μg/mL). Further, the “Inhibition (%) of ABTS•+” value turned out to be 13.73 ± 0.37% in “ABTS•+ assay” (0.33 μg/mL), 52.73 ± 0.93% in the assay “ABTS•+ assay” (1.67 μg/mL) and 92.80 ± 1.50% in “ABTS•+ assay” (3.33 μg/mL).

As to `O=C(O)/C=C/c1ccc(O)c(O)c1` [Compound 1, caffeic acid], in assay [1] (19.61 μg/mL), the “Inhibition (%) of AGEs” value was found to be 9.33 ± 0.27%. For the same molecule, in the assay “ABTS•+ assay”, inhibition was half-maximal at 12 ± 0.24 µM (IC50). For the same molecule, the “Inhibition (%) of ABTS•+” value in “ABTS•+ assay” (0.33 μg/mL) was 11.33 ± 0.31%; in the assay “ABTS•+ assay” (1.67 μg/mL), 34.65 ± 1.03%; in the assay “ABTS•+ assay” (3.33 μg/mL), 75.14 ± 1.08%.

For `C=COC(=O)/C=C/c1ccc(O)c(O)c1` [Compound 5, caffeic acid ethylene ester], the “Rat erythrocyte galactitol content” value in the assay on rat erythrocyte was determined as 15.89 ± 0.41 µM. In addition, the values for the inhibition at 5 µg/mL with rat erythrocyte and with rat lenses were about 31.7% and about 22.5%, respectively. The IC50 came out at 33.2 ± 0.54 µM in assay [1], 3.2 ± 0.55 µM in assay [2] (read-out: rAR IC50), 10.5 ± 0.28 µM in “ABTS•+ assay” and 12.6 ± 0.32 µM in assay [3]. The “Inhibition (%) of AGEs” value in assay [1] (1.96 μg/mL) was found to be 9.00 ± 0.43%; in assay [1] (4.9 μg/mL), 33.94 ± 0.94%; in assay [1] (9.8 μg/mL), 74.81 ± 1.41%. Moreover, the “Inhibition (%) of ABTS•+” value in “ABTS•+ assay” (0.33 μg/mL) turned out to be 13.00 ± 0.13%; in “ABTS•+ assay” (1.67 μg/mL), 50.17 ± 1.75%; in the assay “ABTS•+ assay” (3.33 μg/mL), 84.68 ± 1.41%. In addition, the “Galactitol content in rat lens” value in the assay with rat lenses is recorded as 653.76 ± 4.68 μg/lens wet weight (g). Further, the “inhibition type of rhAR” value was “noncompetitive inhibition” in assay [4] and “noncompetitive” in assay [4] (listed as caffeic acid ethylene ester (5)).

`N=C(N)NN` [Aminoguanidine, reference compound]: in assay [1], the “AGEs IC50” value came to 143.92 ± 0.62 µg/mL. Also, half-maximal inhibition in assay [1] (IC50) was put at 1945 ± 8.39 µM. In addition, the figures for the “Inhibition (%) of AGEs” value in assay [1] (19.61 μg/mL), in assay [1] (98.04 μg/mL) and in assay [1] (196.08 μg/mL) were 3.96 ± 0.06%, 37.39 ± 0.52% and 66.85 ± 0.13%, respectively.

The molecule `O=C(O)c1ccc(O)c(O)c1` [Compound 2, protocatechuic acid] returned an IC50 in the assay “ABTS•+ assay” of 11.6 ± 0.22 µM. Besides, the entries for the “Inhibition (%) of ABTS•+” value in “ABTS•+ assay” (0.33 μg/mL), in “ABTS•+ assay” (1.67 μg/mL) and in the assay “ABTS•+ assay” (3.33 μg/mL) were 14.90 ± 0.34%, 53.79 ± 0.92% and 93.42 ± 0.58%, respectively.

Regarding `O=C(/C=C/c1ccc(O)c(O)c1)O[C@H](Cc1ccc(O)c(O)c1)C(=O)O` [Compound 4, rosmarinic acid], the “Rat erythrocyte galactitol content” value in the assay with rat erythrocyte turned out to be 15.05 ± 0.30 µM. Besides, the inhibition at 5 µg/mL in the assay on rat erythrocyte is about 35.5%; in the assay on rat lenses it was about 36.9%. In addition, the “Inhibition (%) of AGEs” value in assay [1] (19.61 μg/mL) came to 20.67 ± 0.37%. The IC50 was determined as 2.77 ± 0.48 µM in assay [2] (rAR IC50), 8.79 ± 0.1 µM in the assay “ABTS•+ assay” and 18.6 ± 0.4 µM in assay [3]. For the same molecule, the “Inhibition (%) of ABTS•+” value in the assay “ABTS•+ assay” (0.33 μg/mL) amounted to 9.93 ± 0.27%; in “ABTS•+ assay” (1.67 μg/mL), 36.50 ± 0.78%; in “ABTS•+ assay” (3.33 μg/mL), 78.40 ± 1.17%. For the same molecule, the “Galactitol content in rat lens” value with rat lenses is recorded as 532.38 ± 6.56 μg/lens wet weight (g). Also, the “inhibition type of rhAR” value in assay [4] is listed as “noncompetitive”.

For the molecule `O=c1c(O)c(-c2ccc(O)c(O)c2)oc2cc(O)cc(O)c12` [Quercetin, quercetin, reference compound], in the assay on rat erythrocyte, the “Rat erythrocyte galactitol content” value was 16.15 ± 0.39 µM and the inhibition at 5 µg/mL was determined as 30.5%. The molecule also came in with an inhibition at 1 µg/mL in assay [2] (1 μg/mL) of 44.7 ± 1.39%. In addition, in assay [2] (5 μg/mL), the inhibition at 5 µg/mL is 64.7 ± 1.56%. In addition, at 10 µg/mL the inhibition in assay [2] (10 μg/mL) was 75.33 ± 0.55%. Further, in the assay on rat lenses, the “Galactitol content in rat lens” value is 448.81 ± 3.38 μg/lens wet weight (g) and the inhibition at 5 µg/mL was 46.8%.

Regarding `O=C(O)C=Cc1ccc(O)cc1` [Compound 3, p-hydroxycinnamic acid], the IC50 in assay [2] (read-out: rAR IC50) is 8.35 ± 0.51 µM; in the assay “ABTS•+ assay” it was 5.94 ± 1.01 µM. The “Inhibition (%) of ABTS•+” value is on record as 47.60 ± 1.35% in the assay “ABTS•+ assay” (1.67 μg/mL), 59.65 ± 1.39% in the assay “ABTS•+ assay” (3.33 μg/mL) and 74.05 ± 0.69% in the assay “ABTS•+ assay” (8.33 μg/mL).

As to `Cc1c(C)c2c(c(C)c1O)CCC(C)(C(=O)O)O2` (stereo not shown) [Trolox, reference compound], the “ABTS•+ IC50” value in the assay “ABTS•+ assay” was found to be 3.84 ± 0.10 µg/mL. Moreover, in the assay “ABTS•+ assay”, the IC50 turned out to be 15.3 ± 0.4 µM. Besides, the “Inhibition (%) of ABTS•+” value is given as 21.76 ± 1.15% in the assay “ABTS•+ assay” (1.67 μg/mL), 45.48 ± 1.20% in the assay “ABTS•+ assay” (3.33 μg/mL) and 99.44 ± 0.20% in the assay “ABTS•+ assay” (16.67 μg/mL).

In general, IC50 refers to the midpoint of a concentration-inhibition curve. Broadly, the inhibition is the percentage by which the read-out fell short of the control.
